Assays:
[1] = tested on: Con A-stimulated mouse T cell proliferation; experiment: T cell proliferation suppression test; type: cell-based; settings: Con A-stimulated Balb/c thymus T lymphocytic cells, 3H thymidine uptake
Protocol: (§1) T lymphocytic cells (5×10^6/mL) isolated from the thymus of Balb/c mice (weighing 17±1 g) were cultured in a pH 7.4 AIM-V medium containing a given concentration of compound A and 3.3 mg/mL of concanavalin A (Con A) at 37° C. for 24 hours, and, after added with 120 nM ^3H thymidine, further cultured for 16 hours. The cells were collected by filter filtration, and the uptake of thymidine into the cells was measured using a liquid scintillation counter to evaluate the cell proliferation-suppressing effect and calculate IC50.

[2] = tested on: transcription factor NF-κB; experiment: NF-κB gene transcription suppression test (lac Z reporter, Jurkat cells); type: cell-based; settings: Homo sapiens, lac Z under NF-κB site, A23187 + PMA, β-galactosidase activity
Protocol: (§2) Human T lymphocyte Jurkat cells transformed with a β-galactosidase gene (lac Z) having a DNA binding site for the transcription factor NF-κB in its transcriptional control region (2.3×10^6/mL) were cultured together with a given concentration of compound A in a pH 7.4 RPMI-1640 medium at 37° C. for 20 minutes, and, after added with […] A23187 (calcium ionophore) and 50 ng/mL PMA (Phorbol 12-myristate 13-acetate), further cultured for 4 hours. The activity of β-galactosidase was measured by conversion from FDG (fluorescein-di-beta-D-galactopyranoside) to fluorescein. Fluorescent emission was measured using a SpectroFluor Plus plate reader and IC50 was calculated.

[3] = tested on: transcription factor NFAT-1; experiment: NF-AT gene transcription suppression test (lac Z reporter, Jurkat cells); type: cell-based; settings: Homo sapiens, lac Z under NFAT-1 site, A23187 + PMA, β-galactosidase activity
Protocol: as §2, with “NFAT-1” for “NF-κB”

[4] = tested on: LPS-stimulated mouse B cell proliferation; experiment: B cell proliferation suppression test; type: cell-based; settings: LPS-stimulated Balb/c spleen B lymphocytic cells, 3H thymidine uptake
Protocol: as §1, with “B lymphocytic” for “T lymphocytic”, “cells (2×10^6/mL)” for “cells (5×10^6/mL)”, “the spleen” for “the thymus”, “and […]” for “and 3.3”, “of a lipopolysaccharide (LPS)” for “of concanavalin A (Con A)”

[5] = tested on: PiCl-induced atopic dermatitis model mice (NC/NgaTndCrlj, male); experiment: Atopic dermatitis mouse model: dermatitis score; type: in vivo; set-up: key to Dermatitis score (average ± standard error): sum of grades of five findings, each 0 (subclinical) to 3 (severe)
Protocol: (§3) An atopic dermatitis mouse model (NC/NgaTndCrlj, male) induced by picryl chloride (PiCl) was used to evaluate effects against dermal inflammation and hair conditions on the skin suffering from dermal inflammation.
(§4) PiCl-induced atopic dermatitis model mice were prepared by applying a PiCl solution to the sheared abdomen and footpad for sensitization and applying the PiCl solution to the sheared back and the right and left ears (both the inside and outside thereof) once a week for 5 weeks starting from the 5th day after sensitization for repeated induction. In each group, administration was performed once a day for 28 days starting from the 18th day after PiCl sensitization. Compound A and 0.1% tacrolimus ointment were openly applied to a ca. 3 cm×ca. 5 cm region of the neck and back of the model animals. The animals of the 5th group (the group of combined administration of prednisolone and 0.6 w/v % compound A) were orally administered 1 mg/kg of prednisolone and then transdermally administered 0.6 w/v % compound A. The animals of the 6th group (the group of combined administration of 0.1% tacrolimus ointment and 0.6 w/v % compound A) were administered 0.1% tacrolimus ointment at or beyond 3.5 hours after administration of 0.6 w/v % compound A.
(§5) Each evaluation used a dermatitis score and a hair restoration score. The scores were obtained by grading dermatitis and hair growth/hair restoration conditions at Day 1, 8, 15, 22, and 29 (the next day after final administration) of administration, according to the following criteria.
<Dermatitis Findings> The dermatitis score of each individual was expressed as the sum of grades (0: subclinical to 3: severe) of the following dermatitis findings (1) to (5).
(2) Flare/bleeding: Flare and bleeding symptoms in the induction site were observed.
(3) Edema: The edema of the auricle as the induction site was qualitatively observed.
An effect against atopic dermal inflammation was evaluated using the dermatitis score at Day 8 of administration.

[6] = tested on: PiCl-induced atopic dermatitis model mice (NC/NgaTndCrlj, male); experiment: Atopic dermatitis mouse model: hair restoration score; type: in vivo; set-up: key to Hair restoration score (average ± standard error): 0 = no hair growth, 3 = hair restoration in 75-100% of site
Protocol: as §3, §4, §5
<Hair Growth/Hair Restoration Condition> A region received transdermal administration (a ca. 3 cm×ca. 5 cm region of the neck and back) of each individual was observed.
0: No hair growth or hair restoration is noted in the observation site.
1: Hair growth and hair restoration are noted in 0<25% of the observation site.
2: Hair growth and hair restoration are noted in 25≦75% of the observation site.
3: Hair growth and hair restoration are noted in 75≦100% of the observation site.
Hair condition in the skin suffering from dermal inflammation was evaluated using hair restoration scores at Day 15, 22 and 29 of administration.

[7] = 0.08 w/v % Compound A transdermal once a day, Day 15
[8] = 0.08 w/v % Compound A transdermal once a day, Day 22
[9] = 0.08 w/v % Compound A transdermal once a day, Day 29
[10] = 0.3 w/v % Compound A transdermal once a day, Day 1
[11] = 0.3 w/v % Compound A transdermal once a day, Day 15
[12] = 0.3 w/v % Compound A transdermal once a day, Day 22
[13] = 0.3 w/v % Compound A transdermal once a day, Day 29
[14] = 0.6 w/v % Compound A transdermal once a day, Day 1
[15] = 0.6 w/v % Compound A transdermal once a day, Day 15
[16] = 0.6 w/v % Compound A transdermal once a day, Day 22

Compound `CCCCCCCC1(CC[C@@H]2[C@@H](C/C=C\CCCC(=O)OC(C)C)[C@@H](O)C[C@H]2O)OCCO1` [Compound A, isopropyl (Z)-7-[(1R,2R,3R,5S)-2-(3,3-ethylenedioxydecyl)-3,5-dihydroxycyclopentyl]hept-5-enoate] has an IC50 [1] of 6.3 µM, an IC50 [2] of 1330 nM and an IC50 [3] of 1320 nM. For the same compound, the IC50 [4] was 9.23 µM, the “Dermatitis score (average ± standard error)” value ([5]; 0.08 w/v % Compound A transdermal once a day, Day 1 of administration) was 3.8 ± 0.4 and the “Dermatitis score (average ± standard error)” value ([5]; 0.08 w/v % Compound A transdermal once a day, Day 8) was 3.7 ± 0.6. The “Dermatitis score (average ± standard error)” value [5, 7] was 6.2 ± 0.7, the “Dermatitis score (average ± standard error)” value [5, 8] was 8.0 ± 0.5 and the “Dermatitis score (average ± standard error)” value [5, 9] was 9.0 ± 0.7. For the same compound, the “Dermatitis score (average ± standard error)” value [5, 10] was 3.3 ± 0.5, the “Dermatitis score (average ± standard error)” value ([5]; 0.3 w/v % Compound A transdermal once a day, Day 8) was 3.5 ± 0.4 and the “Dermatitis score (average ± standard error)” value [5, 11] was 5.5 ± 0.5. The “Dermatitis score (average ± standard error)” value [5, 12] was 7.5 ± 0.7, the “Dermatitis score (average ± standard error)” value [5, 13] was 8.1 ± 0.5 and the “Dermatitis score (average ± standard error)” value [5, 14] was 3.6 ± 0.3. The “Dermatitis score (average ± standard error)” value [5, 15] was 6.0 ± 0.7, the “Dermatitis score (average ± standard error)” value [5, 16] was 8.3 ± 0.4 and the “Dermatitis score (average ± standard error)” value ([5]; 0.6 w/v % Compound A transdermal once a day, Day 29) was 9.3 ± 0.6. The “progression of early dermatitis” value ([5]; compared to the group administered with the base for compound A, Day 8 dermatitis score) was “tendency to be suppressed”, the “Hair restoration score (average ± standard error)” value ([6]; 0.08 w/v % Compound A transdermal once a day, Day 1) was 0.0 ± 0.0 and the “Hair restoration score (average ± standard error)” value [6, 7] was 2.2 ± 0.1. The “Hair restoration score (average ± standard error)” value [6, 8] was 1.4 ± 0.2, the “Hair restoration score (average ± standard error)” value [6, 9] was 1.5 ± 0.2 and the “Hair restoration score (average ± standard error)” value [6, 10] was 0.0 ± 0.0. For the same compound, the “Hair restoration score (average ± standard error)” value [6, 11] was 2.1 ± 0.2, the “Hair restoration score (average ± standard error)” value [6, 12] was 1.6 ± 0.2 and the “Hair restoration score (average ± standard error)” value [6, 13] was 1.9 ± 0.2. For the same compound, the “Hair restoration score (average ± standard error)” value [6, 14] was 0.0 ± 0.0, the “Hair restoration score (average ± standard error)” value [6, 15] was 1.8 ± 0.2 and the “Hair restoration score (average ± standard error)” value [6, 16] was 1.5 ± 0.2. For the same compound, the “Hair restoration score (average ± standard error)” value ([6]; 0.6 w/v % Compound A transdermal once a day, Day 29, P < 0.05 vs Day 22) was 2.0 ± 0.0 and the “change in hair restoration score (improvement in the hair loss)” value ([6]; Day 29 of administration compared to Day 22) was “observed in a dose-dependent manner”.

Source: patent US20140212441A1, “PHARMACEUTICAL COMPOSITION FOR INFLAMMATORY DISEASES, ALLERGIC DISEASES AND AUTOIMMUNE DISEASES” (R-TECH UENO, LTD., priority 2011, published 2014)
